From patent publication US20070225338A1, “Juvenile Hormone Analogs for Control of Leafhopper and Treehopper Pests” (priority 2004, published 2007)
Values joined by “and” are separate entries in the source; they are usually repeats but may differ in a detail not shown here. Identical values can stand only once.

What was measured:
GWSS = settings: cited from earlier work; for efficacy against GWSS (CDFA nursery shipping protocol list): in vivo; for speed of activity against GWSS: tested over several weeks, Redak and Bethke
[1] = test system: Draeculacephala crassicornis; settings: topical, substrate and vapor treatments; cited from earlier work
[2] = test system: Homalodisca coagulata females; test: Example 4: mortality of JH analog-treated field-collected gravid females; format: in vivo; settings: 10 days post-treatment, fifteen females per treatment
Protocol: The treatment rates for all three: methoprene, kinoprene, and hydroprene are listed below.
This example summarizes two ongoing tests involving field-collected gravid females and eggs oviposited less than 24 hours prior to treatment. […] After eclosion the neonates will be held on host plants until death or successful development to the second instar, which ever occurs first.
Fifteen females were used for each treatment. […] The females will be dissected to determine if there are sub-lethal effects of the JH analogs on the reproductive system.

[3] = test system: Homalodisca coagulata (Say); test: Example 1: females in diapause sprayed with compound, oviposition and dissection of reproductive system; format: in vivo
Source text: (§1) As described in Examples 1 and 2, the inventors topically applied methoprene in an aqueous solution to GWSS females that were: 1) over-wintering in reproductive diapause or 2) females that were newly eclosed adults and not yet reproductively active. […] Untreated females ordinarily will begin reproductive cycles 10-12 days post eclosion.
Ten female Homalodisca coagulata (Say) were sprayed until visibly wet with the candidate compound. They were then placed into a wooden 1 m screened cage that was provisioned with five males and glabrous soybean, Glycine max (L.) A similar untreated control cage was also set up with females sprayed with distilled water. All leafhoppers were taken from a greenhouse culture and were in the process of terminating winter reproductive diapause. Females were checked daily for the presence of brochosomes and plants were checked for egg masses. Cages were in a greenhouse maintained at 32° C. and equipped with artificial lighting for a 14:10 photoperiod. Surviving females were dissected after thirty days and their reproductive status was evaluated.

H. coagulata = test: Example 2: newly-eclosed adult females treated with compound, dissection after 36 days; format: in vivo, Homalodisca coagulata
Protocol: as §1
Seven newly eclosed adult female H. coagulata were treated with the compound. The solution was applied with an aerosol device until individuals were noticeable wet. After treatment, female were placed into a wooden 1 m-screened cage that was provisioned with crape myrtle, eastern saltbush, and soybean. Five males of unknown ages were added to the cage. Female were dissected after 36 days. Males were discarded.

GWSS nymphs = test: Treatment of GWSS nymphs; format: in vivo, Homalodisca coagulata
GWSS females = test: Treatment of reproductively-active females; format: in vivo, Homalodisca coagulata; settings: following weeks of evaluation
[4] = test system: egg parasitoids, Gonatocerus spp.; test: Impact on egg parasitoids; settings: non-target Gonatocerus spp.
[5] = treatment A: 1/100 of recommended dose
[6] = treatment B: 1/10 of recommended dose
[7] = treatment D: 10× recommended dose
[8] = treated diapausing females, one value per surviving female, dissected after thirty days
[9] = newly eclosed adult females, one value per female, 36 days post-treatment

Cc1c(COC(=O)[C@@H]2[C@H](/C=C(\Cl)C(F)(F)F)C2(C)C)cccc1-c1ccccc1 (racemic) [bifenthrin]
efficacy against GWSS (CDFA nursery shipping protocol list) (GWSS): some efficacy

CC(COc1ccc(Oc2ccccc2)cc1)Oc1ccccn1 (racemic) [pyriproxifen, 4-phenoxyphenyl (RS)-2-(2-pyridyloxy)propyl ether]
speed of activity against GWSS (GWSS): too slow to be useful for eradication purposes

COC(=O)C=C(C)CCC=C(C)CCC1OC1(C)C (stereo not shown) [Juvenile hormone III]
effect on diapause [1]: terminated diapause

COP(=O)(NC(C)=O)SC (stereo not shown) [acephate]
efficacy against GWSS (CDFA nursery shipping protocol list) (GWSS): some efficacy

CC(C)N1C(=O)N(c2ccccc2)CS/C1=N\C(C)(C)C [buprofizen]
speed of activity against GWSS (GWSS): too slow to be useful for eradication purposes

CNC(=O)Oc1cccc2ccccc12 [carbaryl]
efficacy against GWSS (CDFA nursery shipping protocol list) (GWSS): some efficacy

CCOP(=S)(OCC)Oc1nc(Cl)c(Cl)cc1Cl [chlorpyrifos]
efficacy against GWSS (CDFA nursery shipping protocol list) (GWSS): some efficacy

CC1(C)C(C=C(Cl)Cl)C1C(=O)OC(C#N)c1ccc(F)c(Oc2ccccc2)c1 (stereo not shown) [cyfluthrin]
efficacy against GWSS (CDFA nursery shipping protocol list) (GWSS): some efficacy

CC1(C)[C@H](C(=O)O[C@H](C#N)c2cccc(Oc3ccccc3)c2)[C@@H]1C=C(Br)Br [deltamethrin]
efficacy against GWSS (CDFA nursery shipping protocol list) (GWSS): some efficacy

CC1(C)C(C(=O)OC(C#N)c2cccc(Oc3ccccc3)c2)C1(C)C (stereo not shown) [fenpropathrin]
efficacy against GWSS (CDFA nursery shipping protocol list) (GWSS): some efficacy

CCOC(=O)/C=C(C)/C=C/CC(C)CCCC(C)C (stereo not shown) [hydroprene, ethyl (2E,4E)-3,7,11-trimethyl-2,4-dodecadienoate]
number of dead female Homalodisca coagulata [2, 5]: 3
number of dead female Homalodisca coagulata [2, 6]: 0
number of dead female Homalodisca coagulata ([2]; treatment C: recommended dose): 0
number of dead female Homalodisca coagulata [2, 7]: 14

O=[N+]([O-])NC1=NCCN1Cc1ccc(Cl)nc1 [imidaclopid]
efficacy against GWSS (CDFA nursery shipping protocol list) (GWSS): some efficacy

C#CCOC(=O)/C=C(C)/C=C/CC(C)CCCC(C)C [kinoprene, 2-propynl (2E,4E)-(7S)-3,7,11-trimethyl-2,4-dodecadienoate]
number of dead female Homalodisca coagulata [2, 5]: 1
number of dead female Homalodisca coagulata [2, 6]: 1
number of dead female Homalodisca coagulata ([2]; treatment C: recommended dose): 0
number of dead female Homalodisca coagulata [2, 7]: 0

CNC(=O)Oc1cc(C)c(SC)c(C)c1 [methiocarb]
efficacy against GWSS (CDFA nursery shipping protocol list) (GWSS): some efficacy

COC(C)(C)CCC[C@H](C)C/C=C/C(C)=C/C(=O)OC(C)C [methoprene, isopropyl (2E,4E)-11-methoxy-3,7,11-trimethyl-2-2,4-dodecadienoate]
reproductive activity of surviving treated females on dissection ([3]; after 30 days): had not begun reproductive activity
eggs produced by treated females ([3]; diapausing females, 30 days): No eggs were produced
time treated females remained reproductively inactive ([3]; diapausing females, topical aqueous solution, summer conditions (32° C., 14:10 L:D), untreated controls oviposit after 10 days): at least 30 days
Brochosomes (within Malpigian tubules) [3, 8]: 1
Fat body [3, 8]: 2
Ova [3, 8]: 1
Ovarioles ([3]; treated diapausing females, one value per surviving female, dissected after thirty days, 32° C., 14:10 photoperiod): 2
time without egg production post-treatment (H. coagulata; 36 days was the maximum time tested): at least 36 days
accumulated fat body in treated females (H. coagulata; dissection of adult females): high amount of accumulated fat body
effect on development of brochosomes and ovarioles (H. coagulata; dissection of reproductive system of adult females): inhibits the development of both brochosomes and ovarioles
Brochosomes (H. coagulata; [9]): 1 and 1.5
Fat body (H. coagulata; [9]): 2.5 and 1.5 and 2
Ova (H. coagulata; [9]): 1
Ovarioles (H. coagulata; [9]): 2
eggs produced by treated females (H. coagulata; newly eclosed females, 36 days): no eggs were produced
ovariole (reproductive) development on dissection (H. coagulata; newly eclosed females, 36 days): inhibited
egg development and oviposition after treatment (H. coagulata; newly eclosed females, after 36 days of summer conditions, untreated begin 10-12 days post eclosion): did not develop eggs or oviposit
number of dead female Homalodisca coagulata [2, 5]: 0
number of dead female Homalodisca coagulata [2, 6]: 0
number of dead female Homalodisca coagulata ([2]; treatment C: recommended dose): 0
number of dead female Homalodisca coagulata [2, 7]: 0
effect of treating nymphs (mortality, time of development, morphology) (GWSS nymphs): did not cause mortality, increase or decrease time of development, or induce morphological aberrations
oviposition of treated reproductively-active females (GWSS females): oviposited the eggs they contained then stopped
impact on egg parasitoids [4]: no impact

O=C(NC(=O)c1c(F)cccc1F)Nc1ccc(OC(F)(F)C(F)OC(F)(F)F)c(Cl)c1 (stereo not shown) [novaluron]
speed of activity against GWSS (GWSS): too slow to be useful for eradication purposes

CC1(C)C(C=C(Cl)Cl)C1C(=O)OCc1cccc(Oc2ccccc2)c1 (stereo not shown) [permethrin]
efficacy against GWSS (CDFA nursery shipping protocol list) (GWSS): some efficacy
